Here are results for ten molecules from PubChem BioAssay (NCI).

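Growth conditions: 96-well plates. Treatment: test compound, 48 hours, 5 concentrations. Analysis: linear interpolation between bracketing concentrations; unreached endpoints set to highest concentration. The concentration for 50% growth inhibition is given as GI50. TGI marks complete inhibition of growth.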

Among the test systems are NCI-H460 lung; T-47D breast; OVCAR-3 ovarian; NCI-H226 lung; M14 melanoma; SK-MEL-5 melanoma; HOP-92 NSCLC; SF-268 CNS; SN12C renal; EKVX NSCLC.
Assay in all cases: NCI tumour cell line growth inhibition, 48 h

With `COc1cc(-c2nn(-c3cccc(NC(=O)Nc4cc(C(F)(F)F)cc(C(F)(F)F)c4)c3)cc2-c2ccncc2)ccc1Cl`, the GI50 in the experiment on NCI-H460 lung is 0.366 µM; with T-47D breast it was 1.03 µM; in the experiment on OVCAR-3 ovarian, 0.293 µM; in the experiment with NCI-H226 lung, 1.14 µM; in the experiment with M14 melanoma, 0.826 µM; in the experiment on SK-MEL-5 melanoma, 0.629 µM. Further, the GI50 was 0.107 µM in the experiment with HOP-92 NSCLC, 0.896 µM in the experiment on SF-268 CNS and 0.471 µM in the experiment on SN12C renal. Also, the TGI in the experiment on NCI-H460 lung stood at 1.64 µM; in the experiment with T-47D breast, 26.7 µM; in the experiment on OVCAR-3 ovarian it was 1.07 µM; with NCI-H226 lung, 11.7 µM; with M14 melanoma, 4.68 µM; in the experiment on SK-MEL-5 melanoma it was 1.3 µM. Also, the figures for the TGI with HOP-92 NSCLC, in the experiment with SF-268 CNS and in the experiment with SN12C renal were 0.64 µM, 2.3 µM and 1.96 µM, respectively.
Turning to `C#CCC(Cc1cnc2nc(N)nc(N)c2n1)c1ccc(C(=O)N[C@@H](CCC(=O)O)C(=O)O)cc1` (stereo not given in full), the GI50 in the experiment on NCI-H460 lung is less than 0.01 µM; in the experiment with T-47D breast, greater than 100 µM; with OVCAR-3 ovarian, less than 0.0135 µM; in the experiment with NCI-H226 lung, less than 0.01 µM; with M14 melanoma, less than 0.01 µM; in the experiment with SK-MEL-5 melanoma, less than 0.01 µM. Moreover, the GI50 in the experiment on SF-268 CNS and in the experiment with SN12C renal was less than 0.01 µM throughout. The TGI with NCI-H460 lung, in the experiment with T-47D breast, with OVCAR-3 ovarian, with EKVX NSCLC, in the experiment on NCI-H226 lung and in the experiment with M14 melanoma was greater than 100 µM in each case. Besides, the TGI with SK-MEL-5 melanoma, with SF-268 CNS and in the experiment with SN12C renal was greater than 100 µM each time.
`O=c1nc2n(-c3ccc(Cl)cc3)c3ccc([N+](=O)[O-])cc3cc-2c(=O)[nH]1`: the GI50 in the experiment on NCI-H460 lung was 23.1 µM; in the experiment with T-47D breast, 18.3 µM; in the experiment on OVCAR-3 ovarian, 5.57 µM; in the experiment with EKVX NSCLC, 37.2 µM; in the experiment with NCI-H226 lung it was 21.1 µM; in the experiment on M14 melanoma, 20.2 µM. The GI50 in the experiment with SK-MEL-5 melanoma was 18.6 µM; in the experiment on SF-268 CNS, 16.5 µM; in the experiment with SN12C renal, 14.5 µM. Further, the TGI in the experiment with NCI-H460 lung is greater than 100 µM; in the experiment with T-47D breast, 43.1 µM; with OVCAR-3 ovarian it was 21.6 µM; with EKVX NSCLC, 82.5 µM; with NCI-H226 lung, 60.5 µM; with M14 melanoma, 37.7 µM. The TGI in the experiment on SK-MEL-5 melanoma stood at 41.6 µM; with SF-268 CNS, 64.5 µM; in the experiment on SN12C renal, 44.5 µM.
On to `CC1=C2C[C@H]3[C@@H](CC[C@@H]4CC(NS(C)(=O)=O)CC[C@@]43C)[C@@H]2CC[C@@]2(C1)O[C@@H]1C[C@H](C)CN[C@H]1[C@H]2C` (stereo not given in full), for which the GI50 with NCI-H460 lung was 4.81 µM; in the experiment on T-47D breast it was 2.68 µM; with OVCAR-3 ovarian, 4 µM; with NCI-H226 lung, 5.44 µM; with M14 melanoma, 7.92 µM; in the experiment with SK-MEL-5 melanoma, 2.18 µM. Moreover, the GI50 with HOP-92 NSCLC was 1.15 µM; with SF-268 CNS it was 12.1 µM; in the experiment on SN12C renal, 10.4 µM. In addition, the TGI in the experiment on NCI-H460 lung amounted to 16 µM; with T-47D breast it was 7.51 µM; in the experiment with OVCAR-3 ovarian, 14 µM; in the experiment with NCI-H226 lung, 21.1 µM; with M14 melanoma it was 22.6 µM; in the experiment on SK-MEL-5 melanoma it was 5.63 µM. The TGI came to 12.7 µM in the experiment on HOP-92 NSCLC, 26.6 µM in the experiment on SF-268 CNS and 23.4 µM in the experiment with SN12C renal.
For the molecule `O=NNc1ccc(S(=O)(=O)c2ccccc2)cn1`, the TGI in the experiment with NCI-H460 lung, with T-47D breast, in the experiment on OVCAR-3 ovarian, in the experiment with EKVX NSCLC, in the experiment on NCI-H226 lung and in the experiment with M14 melanoma was greater than 100 µM throughout. The TGI in the experiment on SF-268 CNS and in the experiment on SN12C renal was greater than 100 µM throughout.
In the case of `CC(C)[C@H](CO)Nc1nc(Nc2ccc(C(=O)NCCNS(=O)(=O)c3cccc4c(N(C)C)cccc34)c(Cl)c2)c2ncn(C(C)C)c2n1`, the GI50 in the experiment with NCI-H460 lung was 3.45 µM; in the experiment with T-47D breast, 2.93 µM; in the experiment on OVCAR-3 ovarian, 2.65 µM; in the experiment with NCI-H226 lung, 2.75 µM; in the experiment on M14 melanoma, 3.24 µM; with SK-MEL-5 melanoma it was 2.07 µM. Also, the figures for the GI50 with HOP-92 NSCLC, in the experiment with SF-268 CNS and with SN12C renal were 2 µM, 2.47 µM and 2.81 µM, respectively. For the same molecule, the TGI is greater than 100 µM with NCI-H460 lung; greater than 82.5 µM in the experiment on T-47D breast; greater than 66.9 µM with OVCAR-3 ovarian; greater than 40 µM in the experiment on NCI-H226 lung; greater than 100 µM in the experiment on M14 melanoma; 5.16 µM with SK-MEL-5 melanoma. Further, the TGI with HOP-92 NSCLC was greater than 100 µM; in the experiment on SF-268 CNS, 34.2 µM; in the experiment with SN12C renal it was greater than 100 µM.
In the case of `O=C(CO)CC(=O)C(=O)Nc1ccccc1`, the TGI with NCI-H460 lung, with OVCAR-3 ovarian, in the experiment with EKVX NSCLC, in the experiment with NCI-H226 lung, in the experiment with M14 melanoma and with SK-MEL-5 melanoma was greater than 100 µM each time. Also, the TGI in the experiment with HOP-92 NSCLC, with SF-268 CNS and with SN12C renal was greater than 100 µM each time.
`CCOc1ccc(-c2nonc2NC(=O)c2cccc(C)c2)cc1OCC`: the GI50 is greater than 100 µM with NCI-H460 lung; greater than 100 µM in the experiment with T-47D breast; greater than 100 µM in the experiment on OVCAR-3 ovarian; greater than 100 µM with NCI-H226 lung; greater than 100 µM in the experiment with SK-MEL-5 melanoma; 21.1 µM in the experiment on HOP-92 NSCLC. Moreover, the GI50 was 90.5 µM in the experiment with SF-268 CNS and greater than 100 µM in the experiment with SN12C renal. The TGI was greater than 100 µM in the experiment on NCI-H460 lung; greater than 100 µM in the experiment with T-47D breast; greater than 100 µM with OVCAR-3 ovarian; greater than 100 µM in the experiment with NCI-H226 lung; greater than 100 µM in the experiment with SK-MEL-5 melanoma; 59.1 µM in the experiment on HOP-92 NSCLC. Also, the TGI with SF-268 CNS and in the experiment on SN12C renal was greater than 100 µM each time.
On to `CCCCCC/C=C1\CCC(CN2CCCC2)C1=O` (stereo not given), for which the TGI in the experiment with NCI-H460 lung was greater than 62.1 µM; with OVCAR-3 ovarian, 27.3 µM; with EKVX NSCLC, 34.2 µM; with NCI-H226 lung it was 34.3 µM; with M14 melanoma it was 33.6 µM; with SK-MEL-5 melanoma, 32.8 µM. Moreover, the results for the TGI with HOP-92 NSCLC, with SF-268 CNS and in the experiment with SN12C renal were 32.4 µM, 38.5 µM and 27 µM, respectively.
Consider `COC(=O)/C([Se]c1c(C)cc(C)cc1C)=C(\[Se]c1c(C)cc(C)cc1C)C(=O)OC`, for which the TGI with NCI-H460 lung, with OVCAR-3 ovarian, in the experiment on EKVX NSCLC, in the experiment on NCI-H226 lung, with M14 melanoma and in the experiment on SK-MEL-5 melanoma was greater than 100 µM throughout. Further, the TGI in the experiment on HOP-92 NSCLC, with SF-268 CNS and in the experiment with SN12C renal was greater than 100 µM throughout.
